Measurements as given in patent US20230303570A1, “KINASE INHIBITORS AND USES THEREOF” (ABM Therapeutics Corporation, priority 2020, published 2023).
Read-outs that look alike come from different tables or passages of the source.

Tests used:
SRC = target: T1, SRC (Homo sapiens, UniProt P12931); test: In vitro kinase assay, SRC (Caliper EZ Reader conversion); type: biochemical
T1 construct: purchased Carna Biosciences
Method: (§1) The effect of the compounds on the activity of SRC and PAK1 kinase were assessed. SRC and PAK1 kinase enzymes were obtained from Carna Biosciences.
Test compounds were dissolved in 100% DMSO to prepare a 20 mM stock. Compounds were stored in −20° C. and protected from light. […] Saracatinib was used as a positive control for the SRC assay, and FRAX597 was used as a positive control for the PAK1 assay. For the positive controls, a 3-fold serial dilution was made to achieve a total of 10 concentrations. 10 μL 1× Kinase buffer was used as the negative control.
First, 250 nL of the compounds at each dilution were transferred into wells of a 384-well plate. […] Then, 10 μL of enzyme mix was added to the 384-well plate, and the enzymes and compounds were pre-incubated at room temperature for 10 minutes. […] Then, 15 μL of substrate mix was added to a 384-well plate and reacted at room temperature for 30 min and 60 min. The reaction was stopped by adding 30 μL of the stop buffer, and the conversion rate was read using a Caliper EZ Reader.
(§2) Percent inhibition is calculated according to the following equation: […]
(§3) wherein “Conversion %_sample” is the conversion percentage value of the sample; “Conversion %_min” is the average conversion percentage value of the negative control; and “Conversion %_max” is the average conversion percentage value of the positive control.
(§4) The dose-response curve was fitted using GraphPad Prism software (version 5, […]), and the IC50 values for each compounds were calculated by log(inhibitor) vs. response using a variable slope program with the following formula:
(§5) Y=Bottom+(Top-Bottom)/(1+10^((Log IC50−X)*HillSlope))

PAK1 = PAK1 (Homo sapiens, UniProt Q13153); test: In vitro kinase assay, PAK1 (Caliper EZ Reader conversion); type: biochemical; design: purchased Carna Biosciences
Method: as §1
Test compounds were dissolved in 100% DMSO to prepare a 20 mM stock. Compounds were stored in −20° C. and protected from light. A 100×solution of the compounds were prepared, from which 4-fold serial dilutions was made to achieve a total of 6 concentrations. Saracatinib was used as a positive control for the SRC assay, and FRAX597 was used as a positive control for the PAK1 assay. For the positive controls, a 3-fold serial dilution was made to achieve a total of 10 concentrations. 10 μL 1× Kinase buffer was used as the negative control.
First, 250 nL of the compounds at each dilution were transferred into wells of a 384-well plate. The PAK1 and SRC kinases were diluted to a 2.5×final concentration with 1×Kinase buffer. Then, 10 μL of enzyme mix was added to the 384-well plate, and the enzymes and compounds were pre-incubated at room temperature for 10 minutes. […] Then, 15 μL of substrate mix was added to a 384-well plate and reacted at room temperature for 30 min and 60 min. The reaction was stopped by adding 30 μL of the stop buffer, and the conversion rate was read using a Caliper EZ Reader.
as §2, §3, §4, §5

T1 sequence (P12931 whole entry): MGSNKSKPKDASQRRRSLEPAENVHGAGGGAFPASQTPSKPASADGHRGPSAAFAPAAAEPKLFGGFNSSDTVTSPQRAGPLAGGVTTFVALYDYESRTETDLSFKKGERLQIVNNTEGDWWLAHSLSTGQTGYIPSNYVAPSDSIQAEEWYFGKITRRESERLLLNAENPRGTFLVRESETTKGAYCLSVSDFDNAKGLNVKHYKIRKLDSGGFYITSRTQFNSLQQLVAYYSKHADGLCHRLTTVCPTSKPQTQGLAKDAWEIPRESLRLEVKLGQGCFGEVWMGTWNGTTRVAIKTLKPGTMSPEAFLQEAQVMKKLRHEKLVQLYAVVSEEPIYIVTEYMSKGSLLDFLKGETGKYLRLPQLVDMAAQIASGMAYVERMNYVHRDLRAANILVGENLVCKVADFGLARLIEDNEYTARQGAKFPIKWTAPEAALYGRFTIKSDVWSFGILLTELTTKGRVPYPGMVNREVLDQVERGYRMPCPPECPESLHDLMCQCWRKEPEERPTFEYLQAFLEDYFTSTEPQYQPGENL
Chain of PAK1 (Q13153 whole entry): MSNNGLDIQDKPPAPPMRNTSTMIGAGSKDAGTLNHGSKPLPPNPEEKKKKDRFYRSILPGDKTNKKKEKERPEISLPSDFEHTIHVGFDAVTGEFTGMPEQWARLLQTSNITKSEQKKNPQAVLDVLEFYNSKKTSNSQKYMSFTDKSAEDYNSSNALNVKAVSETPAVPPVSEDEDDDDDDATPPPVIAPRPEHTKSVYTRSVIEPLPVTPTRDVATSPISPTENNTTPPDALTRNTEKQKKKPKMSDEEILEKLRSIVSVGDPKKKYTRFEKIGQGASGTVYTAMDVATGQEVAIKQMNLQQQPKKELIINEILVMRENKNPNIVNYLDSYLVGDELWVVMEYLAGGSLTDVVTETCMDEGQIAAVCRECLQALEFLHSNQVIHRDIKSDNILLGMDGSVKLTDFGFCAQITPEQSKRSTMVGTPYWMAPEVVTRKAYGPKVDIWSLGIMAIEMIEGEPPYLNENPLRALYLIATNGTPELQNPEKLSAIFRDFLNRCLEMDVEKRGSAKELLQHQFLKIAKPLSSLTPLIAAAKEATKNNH

| IC50 (SRC; read-out: SRC IC50) [nM] | IC50 (PAK1) [µM] | IC50 (SRC) [nM] | Compound |
| --- | --- | --- | --- |
| < 100 | < 0.1 | – | Fc1cc(Nc2ncc3c(n2)N2CCN=C2C(c2ccc(Cl)cc2Cl)=C3)ccc1N1CCNCC1 [Compound 1, 6-(2,4-dichlorophenyl)-N-(3-fluoro-4-(piperazin-1-yl)phenyl)-8,9-dihydroimidazo[1′,2′:1,6]pyrido[2,3-d]pyrimidin-2-amine] |
| – | < 0.1 | – | CN1CCN(c2ccc(Nc3ncc4c(n3)N3CCN=C3C(c3ccc(Cl)cc3Cl)=C4)cc2F)CC1 [Compound 2, 6-(2,4-dichlorophenyl)-N-(3-fluoro-4-(4-methylpiperazin-1-yl)phenyl)-8,9-dihydroimidazo[1′,2′:1,6]pyrido[2,3-d]pyrimidin-2-amine] |
| < 100 | 0.1 to 10 | – | CCN1CCN(c2ccc(Nc3ncc4c(n3)N3CCN=C3C(c3ccc(Cl)cc3Cl)=C4)cc2F)CC1 [Compound 3, 6-(2,4-dichlorophenyl)-N-(4-(4-ethylpiperazin-1-yl)-3-fluorophenyl)-8,9-dihydroimidazo[1′,2′:1,6]pyrido[2,3-d]pyrimidin-2-amine] |
| > 10000 | > 10 | – | CCNc1ncc2c(n1)N1CCN=C1C(c1ccc(Cl)cc1Cl)=C2 [Compound 4, 6-(2,4-dichlorophenyl)-N-ethyl-8,9-dihydroimidazo[1′,2′:1,6]pyrido[2,3-d]pyrimidin-2-amine] |
| > 10000 | > 10 | – | Clc1ccc(C2=Cc3cnc(NC4CCOCC4)nc3N3CCN=C23)c(Cl)c1 [Compound 5, 6-(2,4-dichlorophenyl)-N-(tetrahydro-2H-pyran-4-yl)-8,9-dihydroimidazo[1′,2′:1,6]pyrido[2,3-d]pyrimidin-2-amine] |
| 100 to 10000 | > 10 | – | Fc1ccccc1Nc1ncc2c(n1)N1CCN=C1C(c1ccc(Cl)cc1Cl)=C2 [Compound 6, 6-(2,4-dichlorophenyl)-N-(2-fluorophenyl)-8,9-dihydroimidazo[1′,2′:1,6]pyrido[2,3-d]pyrimidin-2-amine] |
| – | > 10 | < 100 | Fc1cc(N2CCNCC2)ccc1Nc1ncc2c(n1)N1CCN=C1C(c1ccc(Cl)cc1Cl)=C2 [Compound 7, 6-(2,4-dichlorophenyl)-N-(2-fluoro-4-(piperazin-1-yl)phenyl)-8,9-dihydroimidazo[1′,2′:1,6]pyrido[2,3-d]pyrimidin-2-amine] |
| < 100 | 0.1 to 10 | – | Fc1cc(Nc2ncc3c(n2)N2CCN=C2C(c2ccccc2Cl)=C3)ccc1N1CCNCC1 [Compound 11, 6-(2-chlorophenyl)-N-(3-fluoro-4-(piperazin-1-yl)phenyl)-8,9-dihydroimidazo[1′,2′:1,6]pyrido[2,3-d]pyrimidin-2-amine] |
| < 100 | 0.1 to 10 | – | Fc1cc(N2CCNCC2)ccc1Nc1ncc2c(n1)N1CCN=C1C(c1ccccc1Cl)=C2 [Compound 12, 6-(2-chlorophenyl)-N-(2-fluoro-4-(piperazin-1-yl)phenyl)-8,9-dihydroimidazo[1′,2′:1,6]pyrido[2,3-d]pyrimidin-2-amine] |
| < 100 | 0.1 to 10 | – | OCc1cccc(Nc2ncc3c(n2)N2CCN=C2C(c2ccccc2Cl)=C3)c1 [Compound 13, (3-((6-(2-chlorophenyl)-8,9-dihydroimidazo[1′,2′:1,6]pyrido[2,3-d]pyrimidin-2-yl)amino)phenyl)methanol] |
| > 10000 | > 10 | – | Cn1nccc1Nc1ncc2c(n1)N1CCN=C1C(c1ccccc1Cl)=C2 [Compound 14, 6-(2-chlorophenyl)-N-(1-methyl-1H-pyrazol-5-yl)-8,9-dihydroimidazo[1′,2′:1,6]pyrido[2,3-d]pyrimidin-2-amine] |
| 100 to 10000 | > 10 | – | Clc1ccccc1C1=Cc2cnc(Nc3cccnc3)nc2N2CCN=C12 [Compound 15, 6-(2-chlorophenyl)-N-(pyridin-3-yl)-8,9-dihydroimidazo[1′,2′:1,6]pyrido[2,3-d]pyrimidin-2-amine] |
| 100 to 10000 | > 10 | – | Clc1ccccc1C1=Cc2cnc(Nc3ccncc3)nc2N2CCN=C12 [Compound 16, 6-(2-chlorophenyl)-N-(pyridin-4-yl)-8,9-dihydroimidazo[1′,2′:1,6]pyrido[2,3-d]pyrimidin-2-amine] |
| < 100 | > 10 | – | COc1cccc(Nc2ncc3c(n2)N2CCN=C2C(c2ccccc2Cl)=C3)c1 [Compound 17, 6-(2-chlorophenyl)-N-(3-methoxyphenyl)-8,9-dihydroimidazo[1′,2′:1,6]pyrido[2,3-d]pyrimidin-2-amine] |
| – | > 10 | – | Cc1ccccc1C1=Cc2cnc(Nc3ccc(N4CCNCC4)cc3F)nc2N2CCN=C12 [Compound 30, N-(2-fluoro-4-(piperazin-1-yl)phenyl)-6-(o-tolyl)-8,9-dihydroimidazo[1′,2′:1,6]pyrido[2,3-d]pyrimidin-2-amine] |
| – | > 10 | – | Fc1cc(N2CCNCC2)ccc1Nc1ncc2c(n1)N1CCN=C1C(c1ccccn1)=C2 [Compound 32, N-(2-fluoro-4-(piperazin-1-yl)phenyl)-6-(pyridin-2-yl)-8,9-dihydroimidazo[1′,2′:1,6]pyrido[2,3-d]pyrimidin-2-amine] |
| – | 0.1 to 10 | – | Fc1cc(N2CCNCC2)ccc1Nc1ncc2c(n1)N1CCN=C1C(c1cscn1)=C2 [Compound 33, N-(2-fluoro-4-(piperazin-1-yl)phenyl)-6-(thiazol-4-yl)-8,9-dihydroimidazo[1′,2′:1,6]pyrido[2,3-d]pyrimidin-2-amine] |
| – | > 10 | – | Fc1cc(N2CCNCC2)ccc1Nc1ncc2c(n1)N1CCN=C1C(c1ccncc1)=C2 [Compound 34, N-(2-fluoro-4-(piperazin-1-yl)phenyl)-6-(pyridin-4-yl)-8,9-dihydroimidazo[1′,2′:1,6]pyrido[2,3-d]pyrimidin-2-amine] |
| – | > 10 | – | COc1nc(N2CCNCC2)ccc1Nc1ncc2c(n1)N1CCN=C1C(c1ccccc1)=C2 [Compound 37, N-(2-methoxy-6-(piperazin-1-yl)pyridin-3-yl)-6-phenyl-8,9-dihydroimidazo[1′,2′:1,6]pyrido[2,3-d]pyrimidin-2-amine] |
| – | > 10 | – | COc1nc(N2CCNCC2)ccc1Nc1ncc2c(n1)N1CCN=C1C(c1ccc(C)cc1)=C2 [Compound 38, N-(2-methoxy-6-(piperazin-1-yl)pyridin-3-yl)-6-(p-tolyl)-8,9-dihydroimidazo[1′,2′:1,6]pyrido[2,3-d]pyrimidin-2-amine] |
| 100 to 10000 | – | – | CCNc1ncc2c(n1)N1CCCN=C1C(c1c(C)ccc3[nH]ncc13)=C2 [Compound 66, N-ethyl-6-(5-methyl-1H-indazol-4-yl)-9,10-dihydro-8H-pyrido[1,6-a:2,3-d′]dipyrimidin-2-amine] |
| > 10000 | – | – | Oc1ccncc1Nc1ncc2c(n1)N1CCCN=C1C(c1ccccc1Cl)=C2 [Compound 67, 3-((6-(2-chlorophenyl)-9,10-dihydro-8H-pyrido[1,6-a:2,3-d′]dipyrimidin-2-yl)amino)pyridin-4-ol] |
| 100 to 10000 | – | – | Cc1ccc(NC(=O)c2cc(C(F)(F)F)ccn2)cc1C1=Cc2cnc(N)nc2N2CCCN=C12 [Compound 76, N-(3-(2-amino-9,10-dihydro-8H-pyrido[1,6-a:2,3-d′]dipyrimidin-6-yl)-4-methylphenyl)-4-(trifluoromethyl)picolinamide] |
| – | 0.1 to 10 | – | Clc1ccccc1C1=Cc2cnc(Nc3ccc(N4CCOCC4)cc3)nc2N2CCN=C12 [Compound 89, 6-(2-chlorophenyl)-N-(4-morpholinophenyl)-8,9-dihydroimidazo[1′,2′:1,6]pyrido[2,3-d]pyrimidin-2-amine] |
